Laboratory results: paper PMC4718634, “Murine GPRC6A Mediates Cellular Responses to L-Amino Acids, but Not Osteocalcin Variants” (PLoS ONE, 2016)
Entries after “also recorded” stand apart in the source; their conditions may differ. Bridge positions count the residues as written; N and C are the ends. Ends that are not written are not given here.

How the values were obtained:
[1] = test system: GPRC6A; details: ref [6] (supplement list); cited from earlier work
Source text: (§1) Supplement pone.0146846.s004.docx, table 1 | column: Functional assay

[2] = test system: INS-1(832) cells; assay: Label-free cell impedance, INS-1(832) cells; format: cell-based, rat; details: Gprc6a-negative, EBSS, 2.8 mM glucose, Fig 7, two-way ANOVA, *P < 0.05, **P < 0.01 vs Vehicle
Experimental: For INS-1 cells, 100 μl of medium (RPMI 1640 no glucose, 10% FBS, 55 μM β-mercaptoethanol, 1 mM sodium pyruvate, 10 mM HEPES, 100 U/ml penicillin, 100 μg/ml streptomycin, 11.1 mM glucose) was added per well to an E-plate 96 and a background reading taken. Cells were seeded at 2 x 10^4 / well and the plates incubated in the instrument for 48 h. On the day of the experiment, media was changed to EBSS buffer (180 μl; 2.8 mM glucose, 1.8 mM CaCl2, 5.3 mM KCl, 0.8 mM MgSO4, 117 mM NaCl, 26 mM NaHCO3, 1 mM NaH2PO4). After 2 h incubation, cells were stimulated with 20 μl test compound (10 x final) prepared in the same buffer. Data capture and analysis were as for HEK293 cells.

[3] = molecular target: T1, mGPRC6A (mouse GPRC6A) (Mus musculus, UniProt Q8K4Z6); assay: Ca^2+i mobilisation, FlpIn-TREx-HEK293-mGPRC6A cells; format: cell-based; details: for activity in calcium mobilisation assays: with co-expressed Gαq or GαqG66D
T1 sequence (Q8K4Z6 21-928): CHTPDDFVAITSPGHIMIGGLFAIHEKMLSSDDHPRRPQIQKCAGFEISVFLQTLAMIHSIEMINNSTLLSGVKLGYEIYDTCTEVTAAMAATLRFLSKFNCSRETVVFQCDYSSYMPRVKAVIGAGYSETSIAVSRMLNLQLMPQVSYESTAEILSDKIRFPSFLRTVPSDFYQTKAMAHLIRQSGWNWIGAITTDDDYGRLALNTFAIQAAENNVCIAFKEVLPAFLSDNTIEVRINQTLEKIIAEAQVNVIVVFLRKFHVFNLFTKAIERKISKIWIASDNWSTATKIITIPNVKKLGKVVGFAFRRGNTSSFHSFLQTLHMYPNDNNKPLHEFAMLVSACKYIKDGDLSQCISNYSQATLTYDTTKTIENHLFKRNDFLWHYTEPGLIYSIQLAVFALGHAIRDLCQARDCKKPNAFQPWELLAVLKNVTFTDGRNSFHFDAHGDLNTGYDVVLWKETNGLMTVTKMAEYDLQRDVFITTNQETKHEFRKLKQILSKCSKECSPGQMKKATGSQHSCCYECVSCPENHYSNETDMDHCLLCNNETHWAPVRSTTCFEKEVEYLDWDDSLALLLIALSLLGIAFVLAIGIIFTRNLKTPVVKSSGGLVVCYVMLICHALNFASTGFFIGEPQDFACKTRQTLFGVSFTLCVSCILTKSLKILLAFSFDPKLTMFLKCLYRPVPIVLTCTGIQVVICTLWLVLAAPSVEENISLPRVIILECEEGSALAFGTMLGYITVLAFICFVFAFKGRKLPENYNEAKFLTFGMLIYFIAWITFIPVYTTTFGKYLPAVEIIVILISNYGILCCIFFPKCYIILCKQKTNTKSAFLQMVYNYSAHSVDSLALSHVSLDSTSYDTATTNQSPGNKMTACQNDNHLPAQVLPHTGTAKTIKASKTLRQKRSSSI
Experimental: pcDNA 5/FRT/TO constructs were isogenically integrated into a FlpIn-TREx-HEK293 cell line (Life Technologies). FlpIn-TREx-HEK293-mGPRC6A and FlpIn-TREx-HEK293-hGPRC6A cells were then selected using 600 μg/ml hygromycin and 5 μg/ml blasticidin and grown in culture medium consisting of Dulbecco’s Modified Eagle Medium (DMEM), supplemented with 10% (v/v) foetal bovine serum (FBS) at 37°C in 5% CO2 and were sub-cultured in a 1:3 ratio every 3–4 days. Cells were cultured overnight in the presence of 1 μg/ml tetracycline to induce GPRC6A expression. […] 48 h after transfection, cells were selected using 3 μg/ml puromycin and grown as above.
FlpIn-TREx-HEK293-mGPRC6A cells were seeded into T75 flasks at 70% confluency. Cells were transfected with 15μg of plasmid DNA (Gαq or GαqG66D) with Lipofectamine LTX according to manufacturer's instructions, then incubated for 24h at 37°C in 5% CO2. Cells were plated into 96-well plates (10^5 cells/well) and equilibrated at 37°C in 5% CO2 for 4-6h to adhere, whereupon cells were serum starved overnight at 37°C in 5% CO2. For the assay, cells were washed twice in Ca^2+ assay buffer (150 mM NaCl, 2.6 mM KCl, 1.2 mM MgCl2, 10 mM dextrose, 10 mM HEPES, 2.2 mM CaCl2, 0.5% (w/v) BSA and 4 mM probenecid; pH 7.4). Buffer was then replaced with Ca^2+ assay buffer containing 1μM Fluo-4-AM and incubated for 1h at 37°C in 5% CO2. Cells were washed twice more and replaced with Ca^2+ assay buffer at 37°C. Serial dilutions of test agonists were added by injection in a Flexstation™ (Molecular Devices) and fluorescence was measured at 485nm excitation and 520nm emission wavelengths. Agonist responses were normalised to the peak of response to 100 μM ATP.
(§2) Data for all HEK293 assays represent the mean ± SEM of at least three independent experiments (except cell impedance, n = 2). For GLP-1 release, the data represent mean ± SEM of three to five independent experiments (except for OCN, wash; n = 2). For insulin release assays, data represent the mean ± SEM of three independent experiments (except for islet studies; n = 2). Insulin release data were normalised to the response to vehicle in either low or high [glucose]. Statistical analysis for GLP-1 release data were performed by one-way ANOVA, followed by Sidak’s multiple comparisons test (treating wash / no wash datasets separately). Statistical analyses for insulin release data were performed by two-way ANOVA (with [glucose] and drug treatment as group variables), followed by Sidak’s multiple comparisons test. Where only high [glucose] groups were evaluated, statistical analysis was by one-way ANOVA followed by Sidak’s multiple comparisons test.

[4] = test system: GLUTag cells; assay: GLP-1 release from GLUTag cells; format: cell-based, murine; details: 0.01–10 ng/ml; with or without cell washing; 2 h; Fig 6A; listed as Human synthetic OCN
Experimental: Intestinal L-cell model GLUTag cells were seeded in 24-well plates coated with Matrigel and incubated for 6 days in DMEM with 10% FBS, 100 U/ml penicillin, 100 μg/ml streptomycin at 37°C in 5% CO2 and grown for 4–5 days. Where indicated, cells were washed (1 or 2 x 1h) with Krebs-HEPES buffer (20 mM HEPES, 118 mM NaCl, 4.7 mM KCl, 1.2 mM MgSO4, 5 mM NaHCO3, 1.2 mM KH2PO4, 2.5 mM CaCl2, 5.5 mM glucose, 0.2% BSA (w/v), pH 7.2) containing vildagliptin (300 μM) prior to addition of test compounds in the same buffer. After 2 h incubation at 37°C in 5% CO2, the supernatant was recovered and centrifuged at 500 rpm for 5 min. Where used, NPS-2143 pre-treatment was for 30 min.
GLP-1 content in the cell supernatant was measured by ELISA (EGLP-35K, Millipore), according to manufacturer’s instructions after overnight incubation of 15 μl supernatant in 100 μl Krebs-HEPES buffer at 4°C. After 5 x washes, 200 μl of detection conjugate was added and incubated for 2 h at RT. After 3 x washes the reaction was developed with 200 μl of diluted substrate (1:200) for 20 min and terminated by addition of 50 μl stop solution. After 5 min, fluorescence was then measured using 355 nm excitation and 460 nm emission, transforming the obtained signal into pmol GLP-1/well/ml and corrected for GLUTag cell protein content as determined using the method of Bradford (1976).
as §2, with “Concentration-response data were analysed using a three or four parameter logistic function (Motulsky & Christopoulos, 2004) to generate estimates of agonist potency (LogEC50). Data” for “Data”

[5] = test system: GPRC6A; details: HEK293, mouse GPRC6A with human OCN; ref [11]; cited from earlier work
Source text: Additional interest in GPRC6A has emerged due to several studies reporting that it mediates the metabolic and endocrine effects of the de-carboxylated form of the osteoblast-derived peptide, osteocalcin (OCN).

[6] = test system: 22RV1 / PC-3; details: endogenous; ref [9] (supplement list); cited from earlier work
Source text: as §1

[7] = test system: mC6A; details: ref [10] (supplement list); cited from earlier work
Source text: as §1

COc1cccc([C@@H](C)NCCCc2ccccc2Cl)c1 [NPS R568]
pERK1/2 response [1]: pERK1/2 – response to Ca^2+, Mg^2+, Gd^3+, Al^3+, NPS R568 SRE-reporter gene – response to CaCl2, SrCl2, MgCl2, GdCl3 and OCN

mouse OCN: in b69: synthetic mouse OCN of Fig 7 (GSPEFYLGASVPSPDPLEPTREQCELNPACDELSDQYGLKTAYKRIYGITI; ends and bridges not checked; cysteine pairing not given here)
change in cell impedance (cell index) [2]: significant, concentration-dependent activity

[Ca+2].[Cl-].[Cl-] [CaCl2]
SRE-reporter gene response [1]: pERK1/2 – response to Ca^2+, Mg^2+, Gd^3+, Al^3+, NPS R568 SRE-reporter gene – response to CaCl2, SrCl2, MgCl2, GdCl3 and OCN

NC(=O)CC[C@H](N)C(=O)O [L-glutamine]
EC50 [3]: > 1000 µM
activity in calcium mobilisation assays [3]: little or no activity

YLYQWLGAPVPYPDPLEPRREVCELNPDCDELADHIGFQEAYRRFYGPV-NH2/-COOH (disulfide) [human synthetic OCN, synthetic de-carboxylated human osteocalcin, Federation Bioscience]
change in cell impedance (cell index) ([2]; listed as synthetic human OCN): significant changes in cell impedance; also recorded: Concentration-dependent increases in cell index
GLP-1 release, OCN [4]: did not significantly modulate GLP-1 release

human OCN: in b69: synthetic human OCN of Fig 7; in b64: human OCN of ref 11 (YLYQWLGAPVPYPDPLEPRREVCELNPDCDELADHIGFQEAYRRFYGPV; disulfide 23-29 (inferred); not fully specified; printed as YLYQWLGAPVPYPDPLEPRREVCELNPDCDELADHIGFQEAYRRFYGPV-NH2/-COOH; ends not checked; UniProt P02818 52-100, looked up)
change in cell impedance (cell index) [2]: significant, concentration-dependent activity
OCN concentration stimulating cAMP accumulation [5]: 60 ng/mL

CC(C)[C@H](N)C(=O)O [L-valine]
EC50 [3]: > 1000 µM
activity in calcium mobilisation assays [3]: little or no activity

[Cl-].[Cl-].[Mg+2] [MgCl2]
SRE-reporter gene response [1]: pERK1/2 – response to Ca^2+, Mg^2+, Gd^3+, Al^3+, NPS R568 SRE-reporter gene – response to CaCl2, SrCl2, MgCl2, GdCl3 and OCN

N[C@@H](Cc1c[nH]cn1)C(=O)O [L-histidine]
EC50 [3]: > 1000 µM
activity in calcium mobilisation assays [3]: little or no activity

[Cl-].[Cl-].[Sr+2] [SrCl2]
SRE-reporter gene response [1]: pERK1/2 – response to Ca^2+, Mg^2+, Gd^3+, Al^3+, NPS R568 SRE-reporter gene – response to CaCl2, SrCl2, MgCl2, GdCl3 and OCN

C[C@]1(O)CC[C@H]2[C@@H]3CCC4=CC(=O)CCC4=C3C=C[C@@]21C [R1881]
PSA, Runx2 expression response [6]: pERK1/2 – response to Ca^2+, ZnCl2, OCN, Arginine, Testosterone-BSA Proliferation – response to Ca^2+, OCN PSA, Runx2 expression – response to OCN, Arg, R1881 Chemotaxis (22RV1) – response to Ca^2+, OCN
SRE-reporter gene response [7]: pERK1/2 – response to Testosterone-BSA, R1881 SRE-reporter gene – response to R1881, Ca^2+
pERK1/2 response [7]: pERK1/2 – response to Testosterone-BSA, R1881 SRE-reporter gene – response to R1881, Ca^2+

[Cl][Gd]([Cl])[Cl] [GdCl3]
SRE-reporter gene response [1]: pERK1/2 – response to Ca^2+, Mg^2+, Gd^3+, Al^3+, NPS R568 SRE-reporter gene – response to CaCl2, SrCl2, MgCl2, GdCl3 and OCN
